Consider 4 compounds from patent US20260364038A1, “VASODILATOR, NITRIC OXIDE SYNTHASE PRODUCTION PROMOTER, AND USE OF SAME” (J-OIL MILLS, INC., priority 2022, published 2026).

The test system of assay [1] is endothelial nitric oxide synthase (eNOS) genetic expression in HUVECs. Nature of the assay: Relative eNOS genetic expression amount in HUVECs (OneStep real-time RT-PCR, Taqman probe, ddCt method). The settings on record: 24 hours; for Relative eNOS genetic expression amount, Significant difference: vs control example 1, Dunnett's test; for action for promoting production of endothelial nitric oxide synthase (conclusion in words): 30 μM; for fold induction at 30 µM / fold induction at 1 µM: Homo sapiens, HUVEC. The class given is cell-based. How it is done:
HUVECs (made by Lonza; catalog no.: C2519AS)
EGM-2 (made by Lonza; catalog no.: CC-3162)
The substances under test in (1) to (3) below were each dissolved in dimethyl sulfoxide (DMSO) (made by Nacalai Tesque) to prepare solutions having a concentration of 30 mM, and the solutions were added to the culture medium at a 1/1000 proportion to prepare culture media in which the target final concentration of the respective substances under test was 30 μM (Examples 1 to 3).
• (1) Tetradecanoic acid (C14:0) (purity: 100%; made by Sigma-Aldrich) • (2) Pentadecanoic acid (C15:0) (purity: 98.8%; made by Sigma-Aldrich) • (3) Tridecanoic acid (C13:0) (purity: 99.2%; made by Sigma-Aldrich) • (4) Fluvastatin (made by Tokyo Chemical Industry Co., Ltd.; model no.: F0820)
The HUVECs were thawed in a T75 flask and cultured in a CO2 incubator (“SCA-165DRS” made by Astec Co., Ltd.; conditions: 37 °C, 5% CO2, humid; same below) using the EGM-2. The cells were isolated using a 0.05% concentration trypsin solution (“Trypsin-EDTA (0.05%), phenol red” made by Thermo Fisher Scientific; catalog no.: 25300054), sown in a 96-well plate using the culture medium, and cultured in the CO2 incubator. The next day, the culture medium was replaced with the culture media prepared in section “(3. Preparation of substances under test)” above, and the cells were then cultured for 24 hours in the CO2 incubator to carry out treatment using the substances under test.
[5. RNA Extraction, qPCR]
After the treatment, a culture medium supernatant was recovered, RNA was extracted from the cells using a FastLane Cell Probe kit (made by QIAGEN; catalog no.: 215011), OneStep real-time RT-PCR was carried out using a Taqman probe, and the relative eNOS genetic expression amount was calculated by means of the ddCt method. The relative eNOS genetic expression amount was derived by dividing the eNOS genetic expression amount by the GAPDH genetic expression amount.
A significant difference between the substance-under-test treatment groups (control example 2 and the examples) and control example 1 was certified by means of Dunnett's test.
(In general: In qPCR the cycle at which signal appears reflects the starting amount.)

In assay [2] the test system is endothelial nitric oxide synthase. The settings on record: positive control; stated as known; cited from earlier work.
[3] abbreviates: 30 μM final concentration, average of n1-n5, control example 1 (none added) = 1.00, read-out: Relative eNOS genetic expression amount, Average value of n1-n5.
Setting [4] is: 30 μM final concentration, replicate n1, eNOS/GAPDH, relative to control example 1, read-out: Relative eNOS genetic expression amount, n1.
[5] abbreviates: 30 μM final concentration, replicate n2, eNOS/GAPDH, relative to control example 1, read-out: Relative eNOS genetic expression amount, n2.
[6] abbreviates: 30 μM final concentration, replicate n3, eNOS/GAPDH, relative to control example 1, read-out: Relative eNOS genetic expression amount, n3.
Where [7] appears, read: 30 μM final concentration, replicate n4, eNOS/GAPDH, relative to control example 1, read-out: Relative eNOS genetic expression amount, n4.
[8] abbreviates: 30 μM final concentration, replicate n5, eNOS/GAPDH, relative to control example 1, read-out: Relative eNOS genetic expression amount, n5.

Molecules are shown by their SMILES. Read-outs that look alike come from different tables or passages of the source.

As to `CCCCCCCCCCCCCC(=O)O` [Example 1, Tetradecanoic acid], the “Relative eNOS genetic expression amount, Significant difference” value in assay [1] (30 μM final concentration) was “** (Level of significance across both sides: 1%)”. Also, the “action for promoting production of endothelial nitric oxide synthase (conclusion in words)” value (shortened to “action for promoting production”) in assay [1] was “have an action for promoting production of endothelial nitric oxide synthase”. Besides, the fold induction at 30 µM in assay [1] (setting [3]) was found to be 1.26; in assay [1] (setting [4]), 1.27; in assay [1] (setting [5]) it was 1.26; in assay [1] (setting [6]) it was 1.31; in assay [1] (setting [7]), 1.12; in assay [1] (setting [8]), 1.33.
As for `CCCCCCCCCCCCC(=O)O` [Example 3, Tridecanoic acid], the “Relative eNOS genetic expression amount, Significant difference” value in assay [1] (30 μM final concentration) is reported as “** (Level of significance across both sides: 1%)”. Also, in assay [1], the “action for promoting production” value is “have an action for promoting production of endothelial nitric oxide synthase”. Moreover, the fold induction at 30 µM in assay [1] (setting [3]) stood at 1.25; in assay [1] (setting [4]), 1.15; in assay [1] (setting [5]) it was 1.33; in assay [1] (setting [6]), 1.26; in assay [1] (setting [7]), 1.28; in assay [1] (setting [8]), 1.24.
As for `CC(C)n1c(/C=C/C(O)CC(O)CC(=O)O)c(-c2ccc(F)cc2)c2ccccc21` (stereo not drawn) [Fluvastatin, reference compound], in assay [1] (1 μM (control example 2), compared with control example 1), the “Relative eNOS genetic expression amount (in words)” value was “significantly higher than that in control example 1”. The “Relative eNOS genetic expression amount, Significant difference” value in assay [1] (1 μM final concentration (positive control)) was “** (Level of significance across both sides: 1%)”. The fold induction at 1 µM in assay [1] (1 μM final concentration (positive control), average of n1-n5, control example 1 (none added) = 1.00, read-out: Relative eNOS genetic expression amount, Average value of n1-n5) turned out to be 2.62; in assay [1] (1 μM final concentration (positive control), replicate n1, eNOS/GAPDH, relative to control example 1, read-out: Relative eNOS genetic expression amount, n1), 2.45; in assay [1] (1 μM final concentration (positive control), replicate n2, eNOS/GAPDH, relative to control example 1, read-out: Relative eNOS genetic expression amount, n2), 2.57; in assay [1] (1 μM final concentration (positive control), replicate n3, eNOS/GAPDH, relative to control example 1, read-out: Relative eNOS genetic expression amount, n3), 2.57; in assay [1] (1 μM final concentration (positive control), replicate n4, eNOS/GAPDH, relative to control example 1, read-out: Relative eNOS genetic expression amount, n4) it was 2.89; in assay [1] (1 μM final concentration (positive control), replicate n5, eNOS/GAPDH, relative to control example 1, read-out: Relative eNOS genetic expression amount, n5) it was 2.61. Also, in assay [2], the “known action for promoting the production of endothelial nitric oxide synthase” value was “known to have an action for promoting the production of endothelial nitric oxide synthase”.
Regarding `CCCCCCCCCCCCCCC(=O)O` [Example 2, Pentadecanoic acid], the “Relative eNOS genetic expression amount, Significant difference” value in assay [1] (30 μM final concentration) was “** (Level of significance across both sides: 1%)”. The “action for promoting production” value in assay [1] is reported as “have an action for promoting production of endothelial nitric oxide synthase”. The fold induction at 30 µM was found to be 1.26 in assay [1] (setting [3]); 1.15 in assay [1] (setting [4]); 1.28 in assay [1] (setting [5]); 1.2 in assay [1] (setting [6]); 1.36 in assay [1] (setting [7]); 1.3 in assay [1] (setting [8]).
